US8822440B2, “Inhibiting cyclin D polypeptides” (Mayo Foundation for Medical Education and Research, priority 2006, dated 2014)
“Also recorded” adds a separate entry of the source.

What was measured:
NIH3T3 cells = type: cell-based, mouse; settings: MTS
Description: (§1) NIH3T3 cells stably expressing c-maf and the CCND2 promoter driving luciferase (13,000 cells per well) were plated in 96-well plates by a Biomek FX liquid handler (Beckman, Fullerton, Calif.). After the cells had adhered, they were treated with aliquots of molecules from LOPAC (Sigma, St. Louis, Mo.), Prestwick (Prestwick Chemical Inc, Illkirch, France) or Spectrum (Microsource Discovery Systems, Gaylordsville, Conn.) libraries of off-patent drugs and chemicals at a final concentration of ˜5 μM and <0.1% DMSO. Cells were incubated with compounds at 37° C. for 16 hours.
(§2) Viability assay. The effects of screened compounds on cell viability was assessed by 3-(4,5-dimethyl[…])-5-(3-carboxymethoxyphenyl)-2-(4-sulfophenyl)-2-H-tetrazolium (MTS) assay according to the manufacture's instructions (Progmega, Madison, Wis.). MTS reagent (20 μL/well in 96 well plates) was added to cells, and these were then incubated at 37° C. for 4 hours. Absorbance at 490 nm was determined using a 96-well plate reader.
(§3) In an optimized automated assay, NIH3T3 cells over-expressing c-maf and the human cyclin D2 promoter driving luc were plated in 96-well plates by robot and following adhesion were treated for 16 hours with compounds at a final concentration of ˜5 μM and <0.1% DMSO. As a control, cells were treated with buffer alone. […] Thus, each compound from the library was tested in at least two assays—luciferase for CCND2 activity and MTS for viability. The coefficient of variance (CV) of the assay was <10%.

RSV promoter = assay: Luciferase driven by RSV promoter in NIH3T3 cells (specificity control); type: cell-based
Text: Exclusion of non-specific or toxic assay ‘hits.’ Drugs that decreased luciferase activity without affecting viability may cause reduced transactivation of the cyclin D2 promoter, or may act non-specifically on the activity of the luciferase enzyme. To distinguish between these two possibilities, hits were re-tested against NIH3T3 cells that over-expressed luciferase driven by an RSV promoter. […] Therefore, these drugs were excluded from further analysis.

CCND2 promoter = assay: CCND2 promoter-luciferase transactivation assay in NIH3T3 cells with or without c-maf; type: cell-based, mouse; settings: ~5 μM, 16 hours; hit = 50% or more reduction in luciferase relative to cell viability
Description: Using this assay, Lopac (n=1280), Prestwick (n=1120), and Spectrum (n=2000) libraries of drugs and natural compounds were screened. In a parallel MTS assay, the effect of each compound on 3T3 viability was determined, allowing exclusion of compounds that caused secondary suppression of CCND2 due to non-specific cytotoxicity. […] These included monensin, patulin, β-lapachone, camptothecin, dihydrogambogic acid, gentian violet, thapsigargin, brefeldin A, pristimerin, and kinetin riboside.
Full-length c-maf cDNA was subcloned into an IRES-GFP MIEV retroviral vector and introduced into NIH3T3 cells by infection. Stable clones expressing GFP and c-maf were selected by flow cytometry and immunoblotting, respectively. The promoter of human cyclin D2 (−894 to −4; Brooks et al., J. Biol. Chem., 271, 9090-9 (1996)), containing c-maf responsive element sequence (MARE), was cloned from DNA from HeLa cells and inserted into the pGLbasic firefly luciferase vector (Promega, Madison, Wis.) immediately upstream of the luciferase gene. This construct was co-transfected with pcDNA3 (containing a neomycin resistance gene) into both NIH3T3 wild type cells and NIH3T3 cells stably over-expressing c-maf-IRES-GFP. Cells stably expressing c-maf, GFP, and luciferase were selected.
as §1
Luciferase assay. Luciferase activity was assessed according to the manufacturer's instructions (Promega, Madison, Wis.). Briefly, the cell culture medium was removed using an EMBLA plate washer (Molecular Devices, X) and Glo Lysis buffer (Promega) was added by robot. After a 10-minute incubation, an equal volume of Bright-Glo Luciferase substrate (Promega) was added, and luminescence signal was detected with a 96-well Luminoskan luminescence plate reader (Thermo Labsystem, Waltham, Mass.) using a 5 second integration.
Studies of kinetin riboside using 3T3-D2-luc cells. To examine CCND2 suppression induced by kinetin riboside, the reporter cells were exposed to kinetin riboside in combination with other drugs (all purchased from Sigma, St. Loius, Mo.) that influence CCND2 transcription or inhibit nucleoside transport or phosphorylation. NIH3T3 cells expressing the CCND2 promoter driving luciferase were incubated with kinetin riboside or vehicle control +/− forskolin, 4-(3-butoxy-4-methoxybenzyl)imidazolidin-2-one (BMBI), cantharadin, S-(4-Nitrobenzyl)-6-thioinosine (NBTI), or A-134974, as specified at 5 μM concentration for 16 hours at 37° C. […] Forskolin is a cell-permeable diterpenoid that activates adenylate cyclase resulting in increased cAMP concentration. BMBI (Sigma B8279) is an inhibitor of cAMP phosphodiesterase that also causes accumulation of cAMP. Cantharadin (C7632) is an inhibitor of protein phosphatase 2A and, from the library screen, mediates induction of CCND2. NBTI (Sigma N2255) is a potent adenosine uptake inhibitor, and A-134974 (Sigma A2846) is a selective inhibitor of adenosine kinase.
as §3

[1] = Pristimerin toxicity studies in mice; type: in vivo; settings: i.p. daily
Description: While pristimerin is cytotoxic to HMCL and patient myeloma cells at 0.1-0.15 mg/L, toxicity studies in vivo indicate that the drug is tolerated in mice at 2.5 mg/kg i.p. daily.

[2] = test system: CD138− hematopoietic cells; assay: Unsorted myeloma patient bone marrow, flow cytometry: CD138- non-malignant cells; type: cell-based; settings: patient bone marrow, 48 hours
Description: Flow cytometry. HMCL were treated as indicated and then washed in cold phosphate-buffered saline (PBS) and resuspended in buffer containing AnnexinV-FITC and propidium iodide (BD Biosciences, San Jose, Calif.) for 15 minutes at room temperature. Cells (10^5) were subsequently diluted and analyzed immediately by flow cytometry (FACScan, BD Biosciences, San Jose, Calif.) using CellQuest software. Patient bone marrow specimens were prepared and analyzed in a similar fashion using AnnexinV-FITC and anti-CD138-PE (BD Biosciences, San Jose, Calif.).
As mouse embryos that lack any D-cyclins eventually die from hematopoietic failure (Kozar et al., Cell, 118, 477-91 (2004)), the bone marrow might be predicted to be one of the most sensitive non-malignant tissue to be affected by drugs targeting cyclin D expression. Unsorted bone marrow samples from myeloma patients were treated with kinetin riboside to assess the relative cytotoxicity of this drug on malignant versus non-malignant marrow cells. Bone marrow samples were first processed to remove non-nucleated red cells and were then treated for 48 hours with kinetin riboside (5 μM).

[3] = test system: human myeloma cell lines (HMCL); assay: HMCL viability / cytotoxicity (MTT, MTS); type: cell-based
Description: Subsequent validation studies using selected compounds in human myeloma cell lines (HMCL) confirmed successful suppression of both cyclin D2 and D1 polypeptides. Each of these compounds was then shown to be cytotoxic to a genetically diverse and standardized panel of 14 HMCL in MTT assays: monensin (10-760 nM), camptothecin (5-700 nM), dihydrogambogic acid (250-800 nM), pristimerin (150-500 nM), and kinetin riboside (2.5-20 μM). Cell cycle analysis confirmed induction of G0/G1 phase arrest for most compounds, consistent with cyclin D inhibition.
as §2

Row | Structure (SMILES) | effect on NIH3T3 viability (NIH3T3 cells) | effect on luciferase driven by RSV promoter (RSV promoter) | identified as putative inhibitor of CCND2 transactivation (screen hit) (CCND2 promoter) | dose tolerated in mice [1] [mg/kg] | toxicity in CD138− bone marrow progenitor compartment [2] | cytotoxic concentration ([3]; HMCL and patient myeloma cells) [mg/L] | cytotoxic concentration across panel of 14 HMCL ([3]; MTT assays, 14 HMCL) [nM]
1 | O=C1C=C2C(=CCOC2O)O1 (centres unmarked) [patulin] | excess NIH3T3 cytoxicity | non-specifically reduce luciferase activity | putative CCND2 inhibitors; also recorded: putative suppressors of CCND2 | – | – | – | –
2 | COC(=O)[C@]1(C)CC[C@]2(C)CC[C@]3(C)C4=CC=C5C(=CC(=O)C(O)=C5C)[C@]4(C)CC[C@@]3(C)[C@@H]2C1 [pristimerin] | relatively minor effects | – | – | 2.5 | only modest toxicity | 0.1 to 0.15 | 150 to 500
